The source of these data is patent US8618098B2, “Inhibitors of bruton's tyrosine kinase” (Roche Palo Alto LLC, priority 2008, dated 2013).

One may read the IC50 as the concentration that gives 50% inhibition. Lower therefore signals higher potency. Usually melting point stands for the temperature of the solid-liquid transition.

Data set [1] deals with Btk enzyme (His-tagged, full-length) (Homo sapiens (Human), UniProt Q06187). Briefly: Bruton's Tyrosine Kinase (Btk) Inhibition Assay. Type of data set: biochemical. As to conditions: 33P filtration capture assay, 100 μM ATP, 30 μM biotinylated peptide substrate. From the text:
The assay is a capture of radioactive ^33P phosphorylated product through filtration. The interactions of Btk, biotinylated SH2 peptide substrate (Src homology), and ATP lead to phosphorylation of the peptide substrate. Biotinylated product is bound streptavidin sepharose beads. All bound, radiolabeled products are detected by scintillation counter.
Plates assayed are 96-well polypropylene (Greiner) and 96-well 1.2 μm hydrophilic PVDF filter plates (Millipore). Concentrations reported here are final assay concentrations: 10-100 μM compounds in DMSO (Burdick and Jackson), 5-10 nM Btk enzyme (His-tagged, full-length), 30 μM peptide substrate (Biotin-Aca-[…]-NH2), 100 μM ATP (Sigma), 8 mM imidazole (Sigma, pH 7.2), 8 mM glycerol-2-phosphate (Sigma), 200 μM EGTA (Roche Diagnostics), 1 mM MnCl2 (Sigma), 20 mM MgCl2 (Sigma), 0.1 mg/ml BSA (Sigma), 2 mM DTT (Sigma), 1 μCi ^33P ATP (Amersham), 20% streptavidin sepharose beads (Amersham), 50 mM EDTA (Gibco), 2 M NaCl (Gibco), 2 M NaCl w/1% phosphoric acid (Gibco), microscint-20 (Perkin Elmer).
IC50 determinations are calculated from 10 data points per compound utilizing data produced from a standard 96-well plate assay template. One control compound and seven unknown inhibitors were tested on each plate and each plate was run twice. Typically, compounds were diluted in half-log starting at 100 μM and ending at 3 nM. The control compound was staurosporine. Background was counted in the absence of peptide substrate. Total activity was determined in the presence of peptide substrate. The following protocol was used to determine Btk inhibition.
1) Sample preparation: The test compounds were diluted at half-log increments in assay buffer (imidazole, glycerol-2-phosphate, EGTA, MnCl2, MgCl2, BSA).
a.) rinse beads by centrifuging at 500 g
b.) reconstitute the beads with PBS and EDTA to produce a 20% bead slurry
3) Pre-incubate reaction mix without substrate (assay buffer, DTT, ATP, ^33P ATP) and mix with substrate (assay buffer, DTT, ATP, ^33P ATP, peptide substrate) 30° C. for 15 min.
4) To start assay, pre-incubate 10 μL Btk in enzyme buffer (imidazole, glycerol-2-phosphate, BSA) and 10 μL of test compounds for 10 min at RT.
5) Add 30 μL reaction mixture without or with substrate to Btk and compounds.
6) Incubate 50 μL total assay mix for 30 min at 30° C.
7) Transfer 40 μL of assay to 150 μL bead slurry in filter plate to stop reaction.
8) Wash filter plate after 30 min, with following steps
b. 3×250 μL NaCl containing 1% phosphoric acid
9) Dry plate for 1 h at 65° C. or overnight at RT
10) Add 50 μL microscint-20 and count ^33P cpm on scintillation counter. […]

Btk enzyme (His-tagged, full-length), sequence (Q06187 whole entry): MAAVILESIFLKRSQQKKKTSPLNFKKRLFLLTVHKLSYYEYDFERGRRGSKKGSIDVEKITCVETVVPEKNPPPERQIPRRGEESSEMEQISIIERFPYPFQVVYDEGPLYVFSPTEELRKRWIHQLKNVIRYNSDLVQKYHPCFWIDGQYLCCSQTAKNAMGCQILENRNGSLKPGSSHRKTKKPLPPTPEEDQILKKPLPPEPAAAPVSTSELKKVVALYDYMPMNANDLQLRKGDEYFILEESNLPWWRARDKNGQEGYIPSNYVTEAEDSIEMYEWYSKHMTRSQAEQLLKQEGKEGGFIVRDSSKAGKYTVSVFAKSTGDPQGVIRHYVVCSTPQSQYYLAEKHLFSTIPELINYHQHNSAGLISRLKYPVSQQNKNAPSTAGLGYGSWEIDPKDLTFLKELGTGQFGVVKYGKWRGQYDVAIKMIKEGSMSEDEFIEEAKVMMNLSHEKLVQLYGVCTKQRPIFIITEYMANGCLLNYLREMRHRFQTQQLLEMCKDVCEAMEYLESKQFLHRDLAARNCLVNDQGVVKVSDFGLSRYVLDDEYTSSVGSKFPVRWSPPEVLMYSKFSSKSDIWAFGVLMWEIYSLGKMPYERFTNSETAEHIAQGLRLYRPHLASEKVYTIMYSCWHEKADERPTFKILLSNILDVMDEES

In turn, `CNC(=O)Nc1cc(-c2cccc(-n3cnc4cc(C(C)(C)C)ccc4c3=O)c2C)cn(C)c1=O` [Compound I-1, 1-{5-[3-(7-tert-Butyl-4-oxo-4H-quinazolin-3-yl)-2-methyl-phenyl]-1-methyl-2-oxo-1,2-dihydro-pyridin-3-yl}-3-methyl urea] showed a 50% inhibitory concentration (IC50) in data set [1] of 0.112 µM. This counts as sub-micromolar. `Cc1c(-c2cc(Nc3ccc(C(=O)N4CCOCC4)cn3)c(=O)n(C)c2)cccc1N1CNc2cc(N(C)C)ccc2C1=O` [II-1, 7-Dimethylamino-3-(2-methyl-3-{1-methyl-5-[5-(morpholin-4-carbonyl)-pyridin-2-ylamino]-6-oxo-1,6-dihydro-pyridin-3-yl}-phenyl)-2,3-dihydro-1H-quinazolin-4-one] showed a melting point of 247.1 to 250.9 °C. For the same molecule, inhibition in data set [1] was half-maximal at 0.022 µM (IC50). Turning to `CNC(=O)Nc1cc(-c2cccc(N3CNc4cc(N(C)C)ccc4C3=O)c2C)cn(C)c1=O` [II-2, 1-{5-[3-(7-Dimethylamino-4-oxo-1,4-dihydro-2H-quinazolin-3-yl)-2-methyl-phenyl]-1-methyl-2-oxo-1,2-dihydro-pyridin-3-yl}-3-methyl-urea], the melting point was 218.5 to 223.8 °C. Take `Cc1c(-c2cc(Nc3ccc(C(=O)N4CCOCC4)cn3)c(=O)n(C)c2)cccc1N1CNc2cc(C(C)(C)O)ccc2C1=O` [II-3, 7-(1-Hydroxy-1-methyl-ethyl)-3-(2-methyl-3-{1-methyl-5-[5-(morpholine-4-carbonyl)-pyridin-2-ylamino]-6-oxo-1,6-dihydro-pyridin-3-yl}-phenyl)-2,3-dihydro-1H-quinazolin-4-one]: the melting point was in the range of 196 to 197 °C. Further, half-maximal inhibition in data set [1] (IC50) required 0.018 µM.

In data set [1], `Cc1c(-c2cc(Nc3ccc(C(=O)N4CCOCC4)cn3)c(=O)n(C)c2)cccc1-n1ncc2cc(N(C)C)ccc2c1=O` [III-1, 6-Dimethylamino-2-(2-methyl-3-{1-methyl-5-[5-(morpholine-4-carbonyl)-pyridin-2-ylamino]-6-oxo-1,6-dihydro-pyridin-3-yl}-phenyl)-2H-phthalazin-1-one] came in with an IC50 of 0.124 µM.
